According to patent US20130315903A1, “ARYLSULFONAMIDE DERIVATIVES FOR THE PREVENTION OR TREATMENT OF SPECIFIC OPHTHALMOLOGIC DISORDERS” (FOVEA PHARMACEUTICALS, priority 2010, published 2013):
Several values for one entry are separate records, joined by “and”; a condition that tells them apart may be missing. Equal entries are not always repeated.

What was measured:
[1] = test system: leukocyte adhesion to the retinal vasculature; assay: Leukocyte adhesion to the retinal vasculature (leukostasis) of streptozotocin-diabetic Wistar rats; type: in vivo, rat; conditions: 1% phosphate eye drop twice-a-day for 7 days, P<0.05
Description: The effect of compound n° 49 phosphate on leukocyte adhesion to the retinal vasculature of streptozotocin-diabetic Wistar rats was also investigated using the same protocol of administration of compound n° 49 phosphate (1% eye drop twice-a-day for 7 days).

[2] = test system: retina of diabetic Wistar rats (B1R, B2R, i-NOS, e-NOS, COX-2, ICAM-1, VEGF-R2, VEGF-a, IL-1β, HIF-1α mRNA); assay: mRNA expression of cytokines, vasoactive mediators and growth factors in retina of diabetic Wistar rats; type: in vivo, rat; conditions: 1% eye drops 7 days
Description: In order to explore molecular pathways involved into reduction of retinal vascular permeability by compound n° 49 phosphate in diabetic rats, expression of mRNA of cytokines, vasoactive mediators and growth factors was quantified in retina of control and diabetic Wistar rats treated or not with 1% compound n° 49 phosphate eye drops for 7 days. Expression of mRNA of B1R, B2R, i-NOS, e-NOS, COX-2, ICAM-1, VEGF-R2, VEGF-a, IL-1β and HIF-1α was increased in diabetic rat retina compared to control by 7.5-fold (P<0.05), 5.5, 15- (P<0.01), 6.5-, 8- (P<0.05), 8- , 5- (P<0.05), 12-, 6.5- (P<0.01) and 7-fold (P<0.05), respectively. Expression of TNF-α mRNA remained unchanged.

[3] = test system: retinal vascular permeability in streptozotocin-diabetic Brown-Norway rats; assay: Retinal vascular permeability (Evans Blue dye) in streptozotocin-diabetic Brown-Norway rats, eye drops; type: in vivo, rat
Experimental: Male Brown-Norway or Wistar rats were made diabetic by […] injection of 65 mg/kg intraperitoneal streptozotocin. Rats with a glycemia <350 mg/dl were discarded from the study. Seven days later, Brown-Norway rats were treated twice daily for 7 days with a single eye drop (10 μl) containing 0.1, 0.3, 1 and 3% phosphate salt of compound n° 49 or its vehicle (Saline Solution). Wistar rats were treated over the same period (from day 7 for 7 days) with a single eye drop (10 μl) containing 0.3 and 1% fumarate salt of compound n° 49 or its vehicle (Saline Solution). On day 15, retinal vascular leakage was determined by measurement of retinal content of Evans Blue dye.
More specifically, FIG. 1A is the dose-response of compound n° 49 instilled twice a day for 7 days as eye drops (0.1 to 3%) on retinal vascular leakage in streptozotocin-diabetic Brown-Norway rats. Recombinant tissue kallikrein binding protein (rKBP) was used as a reference drug and was given intravitreally 48 hours before vascular leakage measurement. Values are means ±standard error mean of 12 eyes/group (6 rats). *** means that P<0.001in a Student's t-test.
The route by which the phosphate salt of compound n° 49 reaches the retina following topical instillation was investigated to determine whether it is mainly by systemic circulation or by the trans- and/or peri-ocular pathway. Diabetic Brown-Norway rats were treated with 3% compound n° 49 phosphate in a single eye for 7 days or subcutaneously with matching daily dosage (0.6 mg/rat). […] In addition, a daily subcutaneous administration of 0.6 mg compound n° 49 phosphate rat had no effect on retinal vascular permeability.

[4] = test system: retina of diabetic Wistar rats (B1R, B2R, i-NOS, e-NOS, COX-2, ICAM-1, VEGF-R2, VEGF-a, IL-1β, HIF-1α mRNA); assay: mRNA expression of cytokines, vasoactive mediators and growth factors in retina of diabetic Wistar rats; type: in vivo, rat; conditions: 1% eye drops 7 days; remark: listed apart in the source
[5] = test system: retinal vascular leakage in STZ diabetic Brown-Norway rats; conditions: intravitreal route, positive reference drug; cited from earlier work

Molecule: COc1cc(C)c(S(=O)(=O)N(C)CCOCC(=O)N(C)Cc2ccc(C3=NCCN3)cc2)c(C)c1 [compound n° 49 phosphate]
- leukostasis in retinal vessels of diabetic rats [1]: significantly blunted
- mRNA expression of B1R in retina [2]: down-regulated to control level
- mRNA expression of B2R in retina [2]: down-regulated to control level
- mRNA expression of COX-2 in retina [2]: down-regulated to control level
- mRNA expression of HIF-1α in retina [2]: down-regulated to control level
- mRNA expression of ICAM-1 in retina [2]: down-regulated to control level
- mRNA expression of VEGF-A in retina (in list down-regulated to control level) [2]: down-regulated to control level
- mRNA expression of e-NOS in retina [2]: down-regulated to control level
- mRNA expression of i-NOS in retina [2]: down-regulated to control level
- reduction of expression of VEGF-A mRNA in retina [2]: 50%
- reduction of retinal vascular permeability, treated eye ([3]; 3% phosphate in a single eye for 7 days, diabetic Brown-Norway rats, P<0.001): 37%
- reduction of retinal oedema, maximum ([3]; phosphate salt, eye drop 0.1-3% twice daily for 7 days, dose-dependent, diabetic Brown-Norway rats): 55%
- mRNA expression of IL-1β in retina [4]: down-regulated to control level

Molecule: COc1cc(C)c(S(=O)(=O)N(C)CCOCC(=O)N(C)Cc2ccc(C3=NCCN3)cc2)c(C)c1 [compound n° 49]
- reduction of retinal edema, maximum ([3]; 1% eye drops, two separate preliminary studies (data not shown), strain not stated): 58% and 63%

B1: rKBP: Recombinant tissue kallikrein binding protein, reference drug given intravitreally (protein, UniProt P29622 21-427, looked up)
Kallistatin: QLHVEHDGESCSNSSHQQILETGEGSPSLKIAPANADFAFRFYYLIASETPGKNIFFSPLSISAAYAMLSLGACSHSRSQILEGLGFNLTELSESDVHRGFQHLLHTLNLPGHGLETRVGSALFLSHNLKFLAKFLNDTMAVYEAKLFHTNFYDTVGTIQLINDHVKKETRGKIVDLVSELKKDVLMVLVNYIYFKALWEKPFISSRTTPKDFYVDENTTVRVPMMLQDQEHHWYLHDRYLPCSVLRMDYKGDATVFFILPNQGKMREIEEVLTPEMLMRWNNLLRKRNFYKKLELHLPKFSISGSYVLDQILPRLGFTDLFSKWADLSGITKQQKLEASKSFHKATLDVDEAGTEAAAATSFAIKFFSAQTNRHILRFNRPFLVVIFSTSTQSVLFLGKVVDPTKP
- reduction of retinal vascular leakage [5]: approximately 50%
